{"source": "paper PMC8070648", "about": "“Simultaneous Visualization of ^161Tb- and ^177Lu-Labeled Somatostatin Analogues Using Dual-Isotope SPECT Imaging” (Pharmaceutics, 2021)", "assay": "Biodistribution in AR42J tumor-bearing nude mice", "type": "in vivo", "conditions": "female, CD-1 nude, mouse, iv, 1 nmol/mouse, total radioactivity, i.v. 5 MBq; for tissue uptake at 2 h: 2 h p.i.; for tissue uptake at 24 h: 24 h p.i.", "source_text": "Five-week-old female CD-1 nude mice were purchased from Charles River Laboratories (Sulzfeld, Germany).", "key": {"[1]": {"conditions": "AR42J tumor, read-out: AR42J Tumor"}, "[2]": {"conditions": "femoral muscle, read-out: Muscle"}, "[3]": {"conditions": "intestines, read-out: Intestines"}}, "note": "Where two headings read alike, the source gives them in different places.", "data": [{"smiles": "C[C@@H](O)[C@@H]1NC(=O)[C@H](CCCCN)NC(=O)[C@@H](Cc2c[nH]c3ccccc23)NC(=O)[C@H](Cc2ccc(O)cc2)NC(=O)[C@@H](NC(=O)[C@@H](Cc2ccccc2)NC(=O)CN2CCN(CC(=O)O)CCN(CC(=O)O)CCN(CC(=O)O)CC2)CSSC[C@@H](C(=O)N[C@H](CO)[C@@H](C)O)NC1=O", "note": "[[^161Tb]Tb-DOTATOC, metal not drawn]", "values": [{"measurement": "tissue uptake at 2 h", "setting": "[1]", "value": "8.2 ± 0.2", "unit": "%ID/g"}, {"measurement": "tissue uptake at 24 h", "setting": "[1]", "value": "3.8 ± 0.6", "unit": "%ID/g"}, {"measurement": "tissue uptake at 2 h", "setting": "adrenals, read-out: Adrenals", "value": "0.25 ± 0.06", "unit": "%ID/g"}, {"measurement": "tissue uptake at 24 h", "setting": "adrenals, read-out: Adrenals", "value": "0.23 ± 0.2", "unit": "%ID/g"}, {"measurement": "tissue uptake at 2 h", "setting": "blood, read-out: Blood", "value": "≤ 0.1", "unit": "%ID/g"}, {"measurement": "tissue uptake at 24 h", "setting": "blood, read-out: Blood", "value": "≤ 0.1", "unit": "%ID/g"}, {"measurement": "tissue uptake at 2 h", "setting": "[2]", "value": "≤ 0.1", "unit": "%ID/g"}, {"measurement": "tissue uptake at 24 h", "setting": "[2]", "value": "≤ 0.1", "unit": "%ID/g"}, {"measurement": "tissue uptake at 2 h", "setting": "femur, read-out: Femur", "value": "≤ 0.1", "unit": "%ID/g"}, {"measurement": "tissue uptake at 24 h", "setting": "femur, read-out: Femur", "value": "≤ 0.1", "unit": "%ID/g"}, {"measurement": "tissue uptake at 2 h", "setting": "heart, read-out: Heart", "value": "≤ 0.1", "unit": "%ID/g"}, {"measurement": "tissue uptake at 24 h", "setting": "heart, read-out: Heart", "value": "≤ 0.1", "unit": "%ID/g"}, {"measurement": "tissue uptake at 2 h", "setting": "[3]", "value": "0.21 ± 0.13", "unit": "%ID/g"}, {"measurement": "tissue uptake at 24 h", "setting": "[3]", "value": "≤ 0.1", "unit": "%ID/g"}, {"measurement": "tissue uptake at 2 h", "setting": "kidneys, read-out: Kidneys", "value": "9.9 ± 1.4", "unit": "%ID/g"}, {"measurement": "tissue uptake at 24 h", "setting": "kidneys, read-out: Kidneys", "value": "5.2 ± 0.6", "unit": "%ID/g"}, {"measurement": "tissue uptake at 2 h", "setting": "liver, read-out: Liver", "value": "0.17 ± 0.01", "unit": "%ID/g"}, {"measurement": "tissue uptake at 24 h", "setting": "liver, read-out: Liver", "value": "≤ 0.1", "unit": "%ID/g"}, {"measurement": "tissue uptake at 2 h", "setting": "lung, read-out: Lung", "value": "0.27 ± 0.03", "unit": "%ID/g"}, {"measurement": "tissue uptake at 24 h", "setting": "lung, read-out: Lung", "value": "0.11 ± 0.01", "unit": "%ID/g"}, {"measurement": "tissue uptake at 2 h", "setting": "pancreas, read-out: Pancreas", "value": "0.71 ± 0.07", "unit": "%ID/g"}, {"measurement": "tissue uptake at 24 h", "setting": "pancreas, read-out: Pancreas", "value": "0.18 ± 0.01", "unit": "%ID/g"}, {"measurement": "tissue uptake at 2 h", "setting": "spleen, read-out: Spleen", "value": "0.11 ± 0.02", "unit": "%ID/g"}, {"measurement": "tissue uptake at 24 h", "setting": "spleen, read-out: Spleen", "value": "≤ 0.1", "unit": "%ID/g"}, {"measurement": "tissue uptake at 2 h", "setting": "stomach, read-out: Stomach", "value": "0.74 ± 0.38", "unit": "%ID/g"}, {"measurement": "tissue uptake at 24 h", "setting": "stomach, read-out: Stomach", "value": "0.29 ± 0.11", "unit": "%ID/g"}]}]}
